Experimental data published in ChEMBL document CHEMBL1129928, “Selectin-ligand interactions revealed by molecular dynamics simulation in solution” (J Med Chem, 1997).

How the values were obtained:
Type in all cases: cell-based, Endothelial cell
E-selectin = target: T1, E-selectin (Homo sapiens, UniProt P16581); test: Inhibitory activity against E-selectin expressed in endothelial cells
T1 sequence (P16581 whole entry): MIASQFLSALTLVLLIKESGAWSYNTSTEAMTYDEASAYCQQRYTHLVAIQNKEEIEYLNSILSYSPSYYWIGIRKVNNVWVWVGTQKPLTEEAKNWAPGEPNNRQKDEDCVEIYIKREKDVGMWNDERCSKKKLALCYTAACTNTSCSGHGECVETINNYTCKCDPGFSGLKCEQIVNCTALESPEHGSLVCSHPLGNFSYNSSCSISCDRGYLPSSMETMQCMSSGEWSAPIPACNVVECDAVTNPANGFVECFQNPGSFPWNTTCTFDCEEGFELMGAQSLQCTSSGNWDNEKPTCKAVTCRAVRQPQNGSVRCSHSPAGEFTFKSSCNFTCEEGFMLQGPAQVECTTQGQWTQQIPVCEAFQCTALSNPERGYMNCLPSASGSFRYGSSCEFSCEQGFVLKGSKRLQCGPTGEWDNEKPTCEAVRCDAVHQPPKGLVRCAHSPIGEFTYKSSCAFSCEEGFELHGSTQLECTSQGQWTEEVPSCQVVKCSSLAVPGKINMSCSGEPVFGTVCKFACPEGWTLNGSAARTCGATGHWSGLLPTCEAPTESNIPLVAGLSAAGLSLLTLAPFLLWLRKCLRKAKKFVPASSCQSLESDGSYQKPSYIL

P-selectin = target: T2, P-selectin (Homo sapiens, UniProt P16109); test: Inhibitory activity against Selectin P expressed in endothelial cells
T2 sequence (P16109 whole entry): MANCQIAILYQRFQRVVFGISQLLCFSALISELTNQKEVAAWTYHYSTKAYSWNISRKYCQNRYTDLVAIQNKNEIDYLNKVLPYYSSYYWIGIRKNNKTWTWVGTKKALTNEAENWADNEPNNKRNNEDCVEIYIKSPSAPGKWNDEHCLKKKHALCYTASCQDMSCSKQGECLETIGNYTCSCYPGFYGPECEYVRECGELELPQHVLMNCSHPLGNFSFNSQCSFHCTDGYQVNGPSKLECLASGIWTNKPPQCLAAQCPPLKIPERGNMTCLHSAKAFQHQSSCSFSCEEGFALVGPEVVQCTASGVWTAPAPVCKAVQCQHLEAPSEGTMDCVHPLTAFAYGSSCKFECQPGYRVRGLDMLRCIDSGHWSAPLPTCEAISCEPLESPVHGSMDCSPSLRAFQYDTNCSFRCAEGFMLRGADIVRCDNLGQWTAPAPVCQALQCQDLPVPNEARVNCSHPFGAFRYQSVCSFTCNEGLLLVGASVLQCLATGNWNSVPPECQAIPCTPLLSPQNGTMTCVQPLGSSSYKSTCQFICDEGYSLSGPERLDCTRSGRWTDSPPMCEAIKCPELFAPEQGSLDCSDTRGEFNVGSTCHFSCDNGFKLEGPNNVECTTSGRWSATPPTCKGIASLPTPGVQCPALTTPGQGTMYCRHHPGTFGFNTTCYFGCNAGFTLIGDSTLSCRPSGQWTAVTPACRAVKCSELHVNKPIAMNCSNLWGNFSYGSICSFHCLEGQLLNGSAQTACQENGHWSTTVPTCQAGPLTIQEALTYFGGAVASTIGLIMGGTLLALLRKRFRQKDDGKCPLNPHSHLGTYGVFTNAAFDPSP

L-selectin = target: T3, L-selectin (Homo sapiens, UniProt P14151); test: Inhibitory activity against Selectin L expressed in endothelial cells
T3 sequence (P14151 whole entry): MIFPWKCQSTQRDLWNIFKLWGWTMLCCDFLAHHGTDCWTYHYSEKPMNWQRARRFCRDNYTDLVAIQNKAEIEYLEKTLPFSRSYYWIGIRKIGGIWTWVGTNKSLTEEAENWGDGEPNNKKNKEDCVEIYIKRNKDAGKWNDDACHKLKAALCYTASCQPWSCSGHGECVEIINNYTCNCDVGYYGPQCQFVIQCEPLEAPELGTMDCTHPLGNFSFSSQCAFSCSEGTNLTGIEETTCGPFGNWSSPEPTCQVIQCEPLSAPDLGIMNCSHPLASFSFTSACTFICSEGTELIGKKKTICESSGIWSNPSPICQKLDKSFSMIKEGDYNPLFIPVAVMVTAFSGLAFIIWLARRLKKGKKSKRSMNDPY

Row | SMILES | IC50 (E-selectin) | IC50 (P-selectin) | IC50 (L-selectin)
1 | CCCCCCCCCCCCCCC(CCCCCCCCCCCCCC)CO[C@@H]1O[C@H](CO)[C@@H](O[C@@H]2O[C@H](CO)[C@H](O)[C@H](OS(=O)(=O)O)[C@H]2O)[C@H](O[C@@H]2O[C@@H](C)[C@@H](O)[C@@H](O)[C@@H]2O)[C@H]1O | 280 µM | 100 µM | 30 µM
2 | CC(=O)N[C@H]1[C@H]([C@H](O)[C@H](O)CO)O[C@@](O[C@@H]2[C@H](O)[C@H](O[C@H]3[C@H](O[C@@H]4O[C@@H](C)[C@@H](O)[C@H](O)[C@@H]4O)[C@H](NC(C)=O)C(O)O[C@H]3CO)O[C@@H](CO)[C@@H]2O)(C(=O)O)C[C@H]1O (some centres undefined) | 600 µM | > 1000 µM | > 1000 µM
3 | C[C@@H]1O[C@@H](O[C@@H]2[C@H](O)[C@H](O)O[C@@H](CO)[C@H]2O[C@@H]2O[C@@H](CO)[C@H](O)[C@H](OS(=O)(=O)O)[C@@H]2O)[C@@H](O)[C@@H](O)[C@@H]1O | > 1000 µM | 300 µM | > 1000 µM
